# Columns and labels:
# [1] = tested on: SK-MEL-2; assay: Cell proliferation assay (MTS or SRB), SK-MEL-2; format: cell-based; conditions: Homo sapiens, 72 h; SK-MEL-2, Skin (melanoma), 3 days; read-out: IC50 (cell growth inhibition)
# Protocol: (§1) In vitro cell proliferation assays were performed using a 96-well plate based MTSassay (CellTiter 96° AqueousOne Solution Cell Proliferation Assay, Promega) or SRB (Sulforhodamine-B) assay (1-3). Briefly, cells were plated in 100 μl medium on day 0 in 96-well microtiter plates (Falcon #3072). On day 1, 10 μl of serial dilutions of each compound (Nine 1:2 dilutions with a starting concentration of 100 μM; in some cases, a starting concentration of 400 μM (CMX001 or Cidofovir) or 1 μM (some standard agents)) were added in triplicates to the plates. For standard agents using DMSO as solvent, serial dilutions of DMSO with a starting concentration of 0.5% were also included as a vehicle control.
# (§2) After incubation for 3 days at 37° C. in a humidified incubator, viable cells were measured either by MTS or SRB assay. For MTS assay, 20 μl of a 20:1 mixture of (3-(4,5-dimethylthiazol-2-yl)-5-(3-carboxymethoxyphenyl)-2-(4-sulfophenyl)-2H-tetrazolium, inner salt (MTS, 2 mg/ml) and an electron coupling reagent, phenazine methosulfate (PMS, 0.92 mg/ml in DPBS), was added to each well and incubated for 3 hours at 37° C. Absorbance was measured using a BioTek Synergy™ HT Multiple Detection microplate reader at 490 nm. For SRB assay, cells were fixed in situ with 50 μL of cold trichloroacetic acid (TCA, final concentration at 10% w/v) for 60 minutes. Cells were then washed 5 times with H2O and air-dried.
# (§3) Next, cells were stained with 20 μL of 0.2% SRB in 1% acetic acid and incubated at room temperature for 30 minutes and unbound SRB was removed by washing 5 times with 1% acetic acid and air-dried. Finally, bound SRB stain was solubilized in 50 μL of 50 μM Tris buffer before taking an optical density measurement at 570 nm using the BioTek microplate reader. The growth inhibition data were expressed as the percentage of cell survival calculated from the background corrected absorbance. The surviving fraction of cells was determined by dividing the mean absorbance values of the test agent-treated samples by the mean absorbance values of untreated control.
# (§4) Raw data were acquired using a BioTek Synergy™ HT Multiple Detection microplate reader and imported into Microsoft Excel for analysis. The average signal of each treatment was calculated from the triplicates after subtracting the blank signals. The percentage survival values were calculated using the following formula: % survival=(average signal of the drug treatment/average signal of untreated controls)×100. The data were finally imported into the Prism 4 software (GraphPad Software, San Diego, Calif.) to generate the dose-activity curves using non-linear regression curve fit and to calculate the IC50 values.
# [2] = tested on: MIA PaCa-2; assay: Cell proliferation assay (MTS or SRB), MIA PaCa-2; format: cell-based; conditions: Homo sapiens, 72 h; MIA PaCa-2, Pancreatic, 3 days; read-out: IC50 (cell growth inhibition)
# Protocol: as §1, §2
# as §3, with “control. […]” for “control.”
# [3] = tested on: SK-OV-3; assay: Cell proliferation assay (MTS or SRB), SK-OV-3; format: cell-based, human; conditions: Homo sapiens, 72 h; SK-OV-3, Ovarian, 3 days; read-out: IC50 (cell growth inhibition)
# Protocol: as §1, §2
# as §3, with “control. […]” for “control.”
# [4] = tested on: Caki-2; assay: Cell proliferation assay (MTS or SRB), Caki-2; format: cell-based; conditions: Homo sapiens, 72 h; Caki-2, Kidney, 3 days; read-out: IC50 (cell growth inhibition)
# Protocol: as §1, §2
# as §3, with “control. […]” for “control.”
# [5] = tested on: THLE-3; assay: Cell proliferation assay (MTS or SRB), THLE-3; format: cell-based; conditions: Homo sapiens, THLE3, 72 h; THLE-3, Liver (Normal), SV40 large T immortalized, 3 days; read-out: IC50 (cell growth inhibition)
# Protocol: as §1
# After incubation for 3 days at 37° C. in a humidified incubator, viable cells were measured either by MTS or SRB assay. […]
# as §3, with “The surviving fraction of cells was determined by dividing the mean absorbance values of the test agent-treated samples by the mean absorbance values of untreated control.” left out
# [6] = tested on: C33A; assay: Cell proliferation assay (MTS or SRB), C33A; format: cell-based, human; conditions: Homo sapiens, C-33-A, 72 h, Cervical, 3 days, read-out: IC50 (cell growth inhibition)
# Protocol: as §1, §2
# as §3, with “control. […]” for “control.”
# [7] = tested on: SW 780; assay: Cell proliferation assay (MTS or SRB), SW 780; format: cell-based; conditions: Homo sapiens, SW780, 72 h; SW 780, Bladder, 3 days; read-out: IC50 (cell growth inhibition)
# Protocol: as §1, §2
# as §3, with “control. […]” for “control.”
# [8] = tested on: H460; assay: Cell proliferation assay (MTS or SRB), H460; format: cell-based; conditions: Homo sapiens, NCI-H460, 72 h; H460, Lung, 3 days; read-out: IC50 (cell growth inhibition)
# Protocol: as §1, §2
# as §3, with “control. […]” for “control.”
# [9] = tested on: MDA-231; assay: Cell proliferation assay (MTS or SRB), MDA-231; format: cell-based; conditions: Homo sapiens, MDA-MB-231, 72 h; MDA-231, Breast, 3 days; read-out: IC50 (cell growth inhibition)
# Protocol: as §1, §2
# as §3, with “control. […]” for “control.”
# [10] = tested on: Caki-1; assay: Cell proliferation assay (MTS or SRB), Caki-1; format: cell-based; conditions: Homo sapiens, 72 h; Caki-1, Kidney, 3 days; read-out: IC50 (cell growth inhibition)
# Protocol: as §1, §2
# as §3, with “control. […]” for “control.”
# [11] = tested on: HT-29; assay: Cell proliferation assay (MTS or SRB), HT-29; format: cell-based, human; conditions: Homo sapiens, 72 h; HT-29, Colon, 3 days; read-out: IC50 (cell growth inhibition)
# Protocol: as §1, §2
# as §3, with “control. […]” for “control.”
# [12] = tested on: MCF-7; assay: Cell proliferation assay (MTS or SRB), MCF-7; format: cell-based; conditions: Homo sapiens, MCF7, 72 h; MCF-7, Breast, 3 days; read-out: IC50 (cell growth inhibition)
# Protocol: as §1, §2
# as §3, with “control. […]” for “control.”
# [13] = tested on: SiHa; assay: Cell proliferation assay (MTS or SRB), SiHa; format: cell-based, human; conditions: Homo sapiens, 72 h, Cervical, 3 days, read-out: IC50 (cell growth inhibition)
# Protocol: as §1, §2
# as §3, with “control. […]” for “control.”
# [14] = tested on: A2058; assay: Cell proliferation assay (MTS or SRB), A2058; format: cell-based; conditions: Homo sapiens, 72 h; A2058, Skin (melanoma), 3 days; read-out: IC50 (cell growth inhibition)
# Protocol: as §1, §2, §3, §4
# [15] = tested on: Hep G2; assay: Cell proliferation assay (MTS or SRB), Hep G2; format: cell-based; conditions: Homo sapiens, HepG2, 72 h; Hep G2, Liver, 3 days; read-out: IC50 (cell growth inhibition)
# Protocol: as §1, §2
# as §3, with “control. […]” for “control.”
# [16] = tested on: DU 145; assay: Cell proliferation assay (MTS or SRB), DU 145; format: cell-based; conditions: Homo sapiens, 72 h; DU 145, Prostate, 3 days; read-out: IC50 (cell growth inhibition)
# Protocol: as §1, §2
# as §3, with “control. […]” for “control.”
# [17] = tested on: A549; assay: Cell proliferation assay (MTS or SRB), A549; format: cell-based; conditions: Homo sapiens, 72 h; A549, Lung, 3 days; read-out: IC50 (cell growth inhibition)
# Protocol: as §1, §2
# as §3, with “control. […]” for “control.”
# [18] = tested on: PANC-1; assay: Cell proliferation assay (MTS or SRB), PANC-1; format: cell-based; conditions: Homo sapiens, 72 h; PANC-1, Pancreatic, 3 days; read-out: IC50 (cell growth inhibition)
# Protocol: as §1, §2
# as §3, with “control. […]” for “control.”
# [19] = tested on: HCT-116; assay: Cell proliferation assay (MTS or SRB), HCT-116; format: cell-based, human; conditions: Homo sapiens, 72 h; HCT-116, Colon, 3 days; read-out: IC50 (cell growth inhibition)
# Protocol: as §1, §2
# as §3, with “control. […]” for “control.”
# [20] = tested on: SCaBER; assay: Cell proliferation assay (MTS or SRB), SCaBER; format: cell-based; conditions: Homo sapiens, 72 h, Bladder, 3 days, read-out: IC50 (cell growth inhibition)
# Protocol: as §1, §2
# as §3, with “control. […]” for “control.”
Structure (SMILES),IC50 [1],IC50 [2],IC50 [3],IC50 [4],IC50 [5],IC50 [6],IC50 [7],IC50 [8],IC50 [9],IC50 [10],IC50 [11],IC50 [12],IC50 [13],IC50 [14],IC50 [15],IC50 [16],IC50 [17],IC50 [18],IC50 [19],IC50 [20]
CCCCCCCCCCCCCCCCOCCCOP(=O)(O)CO[C@H](CO)Cn1ccc(N)nc1=O [CMX001],70.5 µM,14.6 µM,95.5 µM,60 µM,7 µM,14.3 µM,10 µM,12.4 µM,11.2 µM,68.6 µM,48.6 µM,62 µM,43.1 µM,21.7 µM,37.9 µM,19 µM,> 100 µM,91.5 µM,20.9 µM,82.1 µM
Nc1ccn(C[C@@H](CO)OCP(=O)(O)O)c(=O)n1 [cidofovir],> 100 µM,> 100 µM,> 100 µM,> 100 µM,> 100 µM,96.7 µM,> 100 µM,> 100 µM,> 100 µM,> 100 µM,> 100 µM,> 100 µM,100 µM,> 100 µM,> 100 µM,> 100 µM,> 100 µM,> 100 µM,> 100 µM,> 100 µM
